Data from ChEMBL document CHEMBL2057203, “Synthesis and evaluation of novel F-18 labeled 4-aminoquinazoline derivatives: potential PET imaging agents for tumor detection” (Bioorg Med Chem Lett, 2012).

Key:
[1] = system: Nucleic Acid; assay: Ratio of drug level in tumor to blood in S180 tumor-bearing mouse at 8 to 10 uCi, iv at 5 mins by gamma counting; type: ADME, organism-based; settings: tumour
[2] = system: Heart; assay: Biodistribution in S180 tumor-bearing mouse heart at 8 to 10 uCi, iv after 5 mins by gamma counting; type: ADME, organism-based; settings: in vivo
[3] = system: Heart; assay: Biodistribution in S180 tumor-bearing mouse heart at 8 to 10 uCi, iv after 30 mins by gamma counting; type: ADME, organism-based; settings: in vivo, 0.5 h
[4] = system: Brain; assay: Biodistribution in S180 tumor-bearing mouse brain at 8 to 10 uCi, iv after 30 mins by gamma counting; type: ADME, organism-based; settings: in vivo, 0.5 h
[5] = system: Muscle tissue; assay: Biodistribution in S180 tumor-bearing mouse muscle at 8 to 10 uCi, iv after 5 mins by gamma counting; type: ADME, organism-based; settings: in vivo
[6] = system: Lung; assay: Biodistribution in S180 tumor-bearing mouse lungs at 8 to 10 uCi, iv after 5 mins by gamma counting; type: ADME, organism-based; settings: in vivo
[7] = system: Heart; assay: Biodistribution in S180 tumor-bearing mouse heart at 8 to 10 uCi, iv after 120 mins by gamma counting; type: ADME, organism-based; settings: in vivo, 2 h
[8] = system: Brain; assay: Biodistribution in S180 tumor-bearing mouse brain at 8 to 10 uCi, iv after 120 mins by gamma counting; type: ADME, organism-based; settings: in vivo, 2 h
[9] = system: Stomach; assay: Biodistribution in S180 tumor-bearing mouse stomach at 8 to 10 uCi, iv after 5 mins by gamma counting; type: ADME, organism-based; settings: in vivo
[10] = system: Kidney; assay: Biodistribution in S180 tumor-bearing mouse kidneys at 8 to 10 uCi, iv after 5 mins by gamma counting; type: ADME, organism-based; settings: in vivo
[11] = system: Spleen; assay: Biodistribution in S180 tumor-bearing mouse spleen at 8 to 10 uCi, iv after 60 mins by gamma counting; type: ADME, organism-based; settings: in vivo, 1 h
[12] = system: Nucleic Acid; assay: Ratio of drug level in tumor to brain in S180 tumor-bearing mouse at 8 to 10 uCi, iv at 120 mins by gamma counting; type: ADME, organism-based; settings: in vivo, 2 h
[13] = n-octanol-PBS partition coefficient, logP of the compound; type: physicochemical
[14] = system: Lung; assay: Biodistribution in S180 tumor-bearing mouse lung at 8 to 10 uCi, iv after 30 mins by gamma counting; type: ADME, organism-based; settings: in vivo, 0.5 h
[15] = system: Lung; assay: Biodistribution in S180 tumor-bearing mouse lung at 8 to 10 uCi, iv after 120 mins by gamma counting; type: ADME, organism-based; settings: in vivo, 2 h
[16] = system: Liver; assay: Biodistribution in S180 tumor-bearing mouse liver at 8 to 10 uCi, iv after 5 mins by gamma counting; type: ADME, organism-based; settings: in vivo
[17] = system: Blood; assay: Biodistribution in S180 tumor-bearing mouse blood at 8 to 10 uCi, iv after 120 mins by gamma counting; type: ADME, organism-based; settings: in vivo, 2 h
[18] = system: Nucleic Acid; assay: Ratio of drug level in tumor to brain in S180 tumor-bearing mouse at 8 to 10 uCi, iv at 60 mins by gamma counting; type: ADME, organism-based; settings: in vivo, 1 h
[19] = system: Kidney; assay: Biodistribution in S180 tumor-bearing mouse kidney at 8 to 10 uCi, iv after 60 mins by gamma counting; type: ADME, organism-based; settings: in vivo, 1 h
[20] = system: Nucleic Acid; assay: Ratio of drug level in tumor to muscle in S180 tumor-bearing mouse at 8 to 10 uCi, iv at 120 mins by gamma counting; type: ADME, organism-based; settings: in vivo, 2 h
[21] = system: Muscle tissue; assay: Biodistribution in S180 tumor-bearing mouse muscle at 8 to 10 uCi, iv after 60 mins by gamma counting; type: ADME, organism-based; settings: in vivo, 1 h
[22] = system: Stomach; assay: Biodistribution in S180 tumor-bearing mouse stomach at 8 to 10 uCi, iv after 120 mins by gamma counting; type: ADME, organism-based; settings: in vivo, 2 h
[23] = system: Liver; assay: Biodistribution in S180 tumor-bearing mouse liver at 8 to 10 uCi, iv after 60 mins by gamma counting; type: ADME, organism-based; settings: in vivo, 1 h
[24] = system: Spleen; assay: Biodistribution in S180 tumor-bearing mouse spleen at 8 to 10 uCi, iv after 120 mins by gamma counting; type: ADME, organism-based; settings: in vivo, 2 h
[25] = system: Mus musculus; assay: Biodistribution in S180 cells xenografted in mouse tumor at 8 to 10 uCi, iv after 120 mins by gamma counting; type: ADME, organism-based, Neoplasm, CCRF S-180; settings: in vivo, 2 h
[26] = system: Lung; assay: Biodistribution in S180 tumor-bearing mouse lung at 8 to 10 uCi, iv after 60 mins by gamma counting; type: ADME, organism-based; settings: in vivo, 1 h
[27] = system: Brain; assay: Biodistribution in S180 tumor-bearing mouse brain at 8 to 10 uCi, iv after 60 mins by gamma counting; type: ADME, organism-based; settings: in vivo, 1 h
[28] = system: Mus musculus; assay: Biodistribution in S180 cells xenografted in mouse tumor at 8 to 10 uCi, iv after 5 mins by gamma counting; type: ADME, organism-based, Neoplasm, CCRF S-180; settings: in vivo

Structure (SMILES): COc1cc2ncnc(Nc3ccc(F)c(Cl)c3)c2cc1OCC[18F]
- Ratio [1]: 0.27
- Drug uptake [2]: 4.4 % ID/g
- Drug uptake [3]: 5.02 % ID/g
- Drug uptake [4]: 3.15 % ID/g
- Drug uptake [5]: 5.12 % ID/g
- Drug uptake [6]: 4.6 % ID/g
- Drug uptake [7]: 2.52 % ID/g
- Drug uptake [8]: 1.98 % ID/g
- Drug uptake [9]: 5.35 % ID/g
- Drug uptake [10]: 14.25 % ID/g
- Drug uptake [11]: 3.23 % ID/g
- Ratio [12]: 2.38
- logP [13]: 0.39
- Drug uptake [14]: 4.57 % ID/g
- Drug uptake [15]: 2.57 % ID/g
- Drug uptake [16]: 11.34 % ID/g
- Drug uptake [17]: 3.61 % ID/g
- Ratio [18]: 1.87
- Drug uptake [19]: 3.99 % ID/g
- Ratio [20]: 2.71
- Drug uptake [21]: 3.35 % ID/g
- Drug uptake [22]: 3.64 % ID/g
- Drug uptake [23]: 4.22 % ID/g
- Drug uptake [24]: 2.39 % ID/g
- Drug uptake [25]: 4.71 % ID/g
- Drug uptake [26]: 3.75 % ID/g
- Drug uptake [27]: 2.94 % ID/g
- Drug uptake [28]: 1.87 % ID/g
